{"source": "patent US20080318838A1", "about": "“PEPTIDES” (priority 1992, published 2008)", "experiment": "biological activity of recombinantly produced (1-38)PTH", "details": "recombinant product from Gen55-Asn-Gly-Pro-(1-38)PTH fusion", "procedure": "From a non-optimized 20 litre fermentation a 78 g wet cell pellet with 50% expression of the fusion protein is harvested. Following lysis and centrifugation, 18 g of “90% pure” inclusion bodies are obtained. Following the acid stop step and centrifugation/filtration about 470 mg Gly-pro-PTH are detected. After HPLC on C4-Vydac, 355 mg of peptide are detected, decreasing to 321 mg after SP-Sepharose cation-exchange. Enzymatic removal of the Gly and Pro residues is carried out at 2 mg/ml.", "note": "Ends that are not written are not given here."}
{"substance": "hPTH-(1-38)-OH (SVSEIQLMHNLGKHLNSMERVEWLRKKLQDVHNFVALG-OH; UniProt P01270 32-69, looked up, fragment) [(1-38)PTH, natural human PTH fragment 1-38, produced recombinantly from a gp55 fusion protein in E. coli]", "values": [{"measurement": "biological activity", "result": "fully biologically active"}]}
